# Where two headings read alike, the source gives them in different places.
# Test system: Pseudomonas aeruginosa (ATCC #10145)
# Assay: MIC via microbroth dilution
# Format: cell-based
# Method: To examine the preservative boosting potential of these dispersions, minimum inhibitory concentration (MIC) testing was performed. MICs were determined via microbroth dilution using the following specific test parameters:
# Necessary organism dilutions via OD600 were calculated based on OD600 of 1.0 being equivalent to 8×10^8 CFU/mL. Biocide dilutions were performed in 2-fold increments for each assay.
Structure (SMILES),"Fold Reduction of MIC over control without booster (Table 7, with 0.075% “1737-72”:AMP95 (1:1)) [fold]","Fold Reduction of MIC over control without booster (Table 7, with 0.15% “1737-72”:AMP95 (1:1)) [fold]",fold lower MIC values (biocide in combination with magnesium oxide version “1737-34”) [fold],Fold Reduction of MIC over control without booster [fold],fold lower MIC values
"O=c1[nH]sc2ccccc12 [BIT, 1,2-benzisothiazolin-3-one]",2,2,2,,
[Na+].[O-][n+]1ccccc1[S-] [sodium pyrithione],,,,64,clearly antagonistic
